Experimental data as given in patent US11491204B2, “Composition comprising poly I:C and LAG-3-IGG fusion protein” (CYTLIMIC INC., priority 2015, dated 2022).

How the values were obtained:
[1] = tested on: P815 tumor cells; assay: Cancer vaccine: comparison of adjuvants with P1A peptide in P815-grafted DBA/2 mice; type: in vivo; conditions: groups of 5 mice; P1A CTL i.v. Day 8; P1A peptide 50 μg + adjuvant s.c. Day 9 and Day 16
Excerpt: In accordance with the protocol shown in FIG. 1, the effects of adjuvants in cancer vaccines using a cancer-antigen derived peptide were compared.
As cancer model mice, DBA/2 mice, to which P815 cells (DBA/2mouse-derived mouse mastocytoma) were grafted, were put in use.
As a cancer-antigen derived peptide, a peptide (hereinafter referred to as “PIA peptide”) consisting of a partial sequence of PIA protein was used, which is a tumor antigen of P815 tumor and known to be restrictively presented by an MHC H-2Ld. The amino acid sequence of P1A peptide are represented by LPYLGWLVF (SEQ. ID No: 1).
As P1A CTL, a T cell expressing a T cell receptor and recognizing P1A peptide was used. […] Based on the positive ratio, the number of P1A-CTL cells was determined and administered.
As the adjuvants, the following substances were used. • Whole pertussis bacterial cell (PT) (BioFarma, Bandung, Indonesia) • Poly I:C (TLR3 agonist) (Invivogen, SanDiego, USA) • CpG (TLR9 agonist) (Invivogen, SanDiego, USA) • IFA (incomplete Freund's adjuvant) (Seppic, Paris, France) • LAG-3 (Adipogen, SanDiego, USA) Method
P815 tumor cells were subcutaneously inoculated to DBA/2 mice in an amount of 5×10^5 cells per mouse. The day of inoculation was specified as Day 0. On Day 8, P1A CTL (2.5×10^5 cells per mouse) were intravenously injected. […]

[2] = tested on: B16-F10 melanoma cells; assay: Tumor growth inhibitory effect by combination of immuno-adjuvants, B16-F10 melanoma inoculation model mice; type: in vivo, C57BL/6 mice
Description: To C57BL/6 mice, B16-F10 melanoma cells (1×10^5 cells per mouse) were subcutaneously inoculated to prepare cancer model mice.
The day of inoculation was specified as Day 0. On Day 5 and Day 12, twice in total, an admixture of gp100 peptide (50 μg per mouse) and an adjuvant in PBS was subcutaneously injected. The following adjuvants were used in respective mice groups.
Group 1: IFA (50 μL/mouse)
(§1) Group 2: Poly IC (50 μg/mouse)
Group 3: LAG-3 (1 μg/mouse)
Group 4: LAG-3 (1 μg/mouse)+Poly IC (50 μg/mouse)

[3] = tested on: P815 tumor cells; assay: Suppression effect of tumor growth by immunoadjuvant combination (P815 model); type: in vivo, DBA/2 mice
Excerpt: The following substances were used as adjuvants.
Poly I:C (TLR3 agonist) (Invivogen, SanDiego, USA)
RIBOXXOL (TLR3 agonist) (Riboxx, Radebeul, Germany)
MPL (TLR4 agonist) (Invivogen, SanDiego, USA)
Imiquimod (TLR7/8 agonist) (Invivogen, SanDiego, USA)
CpG (TLR9 agonist) (Invivogen, SanDiego, USA)
LAG-3 (Adipogen, SanDiego, USA)
P815 tumor cells were subcutaneously inoculated to DBA/2 mice in an amount of 5×10^5 cells per mouse to prepare cancer model mice. The day of inoculation was specified as Day 0. On Day 7, PIA CTL (2.5×10^5 cells per mouse) were intravenously injected. Day 8 and Day 15, an admixture of PIA peptide (50 μg per mouse) and an adjuvant in PBS was subcutaneously injected. Mice were divided into 9 groups each consisting of 4 or 5 mice and the following adjuvants were used respectively.
Group 1: PIA peptide alone (control)
as §1
Group 3: Poly IC (50 μg/mouse)+LAG-3 (1 μg/mouse)
Group 4: No PIA peptide, Poly IC (50 μg/mouse)+LAG-3 (1 μg/mouse) alone
Group 5: RIBOXXOL (100 μg/mouse)
Group 6: RIBOXXOL (100 μg/mouse)+LAG-3 (1 μg/mouse)
Group 7: MPL (10 μg/mouse)+LAG-3 (1 μg/mouse)
Group 8: Imiquimod (50 μg/mouse)+LAG-3 (1 μg/mouse)
Group 9: CpG (10 μg/mouse)+LAG-3 (1 μg/mouse)

## Polyinosinic:polycytidylic acid [Poly IC]
[1]
  number of mice survived until Day 70 without increasing tumor size: 1
[2]; Poly IC and LAG-3 alone compared to IFA group, combination compared to IFA, Poly IC and LAG-3 groups
  effect of extending survival time (in words): a significant effect of extending survival time was not observed
[2]; gp100 peptide 50 μg + adjuvant s.c. Day 5 and Day 12
  Day on which five mice all died: 35 days
[3]; with PIA peptide 50 μg s.c. Day 8 and Day 15, time point apparently Day 40
  mice survived (out of 5): Four

## LPYLGWLVF (listed as Mus musculus) [PIA peptide alone]
[3]; 5 out of 5 mice, PIA peptide without adjuvant
  Day up to which all mice died: ≤ 40 days
